This passage reports IC50 results from patent publication US20250066341A1 (CHIESI FARMACEUTICI S.P.A., priority 2021, published 2025).

The assay addresses T1, human recombinant LPA1 expressed in CHO cells (Homo sapiens, UniProt Q92633).
T1 construct: expressed in transfected cells; host or cells: CHO cells (CHO-hLPA1 cell line)
As to the kind of experiment: FLIPR calcium mobilization assay, LPA1 antagonism in CHO-hLPA1 cells. It counts as cell-based. The note with it: inhibition of LPA EC80 Ca2+ response, 30 min pre-incubation, expressed as range of activity. How it is done:
The effectiveness of compounds of the present invention as LPA1 antagonist can be determined at the human recombinant LPA1 expressed in CHO cells, using a FLIPR assay in 384 well format.
CHO-hLPA1 cell lines are cultured in a humidified incubator at 5% C02 in DMEM/F-12 (1:1) MIXTURE with 2 mM Glutamax, supplemented with 10% of Foetal Bovine Serum, 1 mM Sodium Pyruvate, 11 mM Hepes and 1× Penicillin/Streptomycin. […] Serial dilutions (1:3 or 1:4, 11 points CRC) of compounds are performed in 100% DMSO at 200× the final concentration. […] The final concentration of DMSO in the assay will be 0.5% in each well. Medium is removed by aspiration and cells are then incubated with 30 μl of a loading solution containing 5 μM of the cytoplasmic Ca2+ indicator Cal-520 AM in Assay Buffer containing 2.5 mM probenecid for 30 min at 37° C. incubator (cell loading). The loaded cell plates are transferred into the FLIPR instrument and calcium responses are monitored during the on-line addition protocols. For testing of compounds, after the cell loading, 10 μl/well of 4× antagonists' solution was added onto the cells. After 30 min pre-incubation (at 37° C.), 10 μl/well of 5× concentrated LPA EC80 was added and Ca2+ mobilization responses was followed during the on-line addition protocol. Intracellular peak fluorescence values subtracted by baseline fluorescence are exported and analysed to determine IC50 values, respectively. The calcium response is expressed as percentage of the maximal inhibition of the EC80 agonist response.
The raw data (peak height expressed as relative fluorescence units) are normalized and transformed into “percent of inhibition”. Curve fitting and pIC50 (−LogIC50) estimations are carried out using a four-parameter logistic model using XLfit Software.
Background: A change in cytosolic calcium serves as a functional read-out for many receptors and channels.

T1 sequence (Q92633 whole entry): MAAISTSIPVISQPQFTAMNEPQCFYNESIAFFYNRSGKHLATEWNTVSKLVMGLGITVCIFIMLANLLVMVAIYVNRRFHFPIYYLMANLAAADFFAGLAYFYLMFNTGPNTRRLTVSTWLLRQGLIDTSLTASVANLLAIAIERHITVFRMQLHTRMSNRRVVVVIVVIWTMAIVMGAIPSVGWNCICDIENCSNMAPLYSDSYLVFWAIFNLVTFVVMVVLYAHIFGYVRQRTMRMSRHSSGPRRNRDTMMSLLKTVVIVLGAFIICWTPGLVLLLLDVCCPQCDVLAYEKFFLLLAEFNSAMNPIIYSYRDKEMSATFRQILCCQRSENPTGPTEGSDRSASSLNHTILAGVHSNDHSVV

As to `Cc1noc(-c2ccc(NC(=O)C3CCCCC3C(=O)O)cc2)c1Nc1cncc(OC(C)C)n1` (racemic) [Compound 16, 2-((4-(4-((6-isopropoxypyrazin-2-yl)amino)-3-methylisoxazol-5-yl)phenyl)carbamoyl)cyclohexane-1-carboxylic acid], the half-maximal inhibitory concentration (IC50) (as a rule, the concentration needed to halve the response being measured) was under 0.05 µM.

In the case of `Cc1nc(-c2onc(C)c2NS(=O)(=O)CC(C)c2ccccc2)ccc1NC(=O)[C@H]1CCCC[C@@H]1C(=O)O` (mixture of isomers) [Compound 29, rac-(1S,2S)-2-((2-methyl-6-(3-methyl-4-((2-phenylpropyl)sulfonamido)isoxazol-5-yl)pyridin-3-yl)carbamoyl)cyclohexane-1-carboxylic acid], the IC50 was under 0.05 µM.

`CC(C)Oc1cncc(Nc2c(-c3ccc(NC(=O)C4CCCCC4C(=O)O)cc3)nnn2C)n1` (racemic) [Compound 43, 2-((4-(5-((6-isopropoxypyrazin-2-yl)amino)-1-methyl-1H-1,2,3-triazol-4-yl)phenyl)carbamoyl)cyclohexane-1-carboxylic acid]: the IC50 is 0.05 to 0.25 µM.

With `Cc1nc(-c2onc(C)c2NS(=O)(=O)CC(C)c2ccccc2)ccc1NC(=O)[C@H]1CCCC[C@@H]1C(=O)O` (single isomer, unassigned) [Compound 30], the IC50 is under 0.05 µM.

Take `Cc1noc(-c2ccc(OCC3CCCCC3C(=O)O)cn2)c1NC(=O)O[C@H](C)c1ccccc1Cl` (single isomer, unassigned) [Compound 81]: the IC50 is under 0.05 µM.

As for `Cc1nc(-c2onc(C)c2Nc2cncc(OC3CC(F)(F)C3)n2)ccc1NC(=O)[C@H]1CCCC[C@@H]1C(=O)O` [Compound 3, (1S,2S)-2-((6-(4-((6-(3,3-difluorocyclobutoxy)pyrazin-2-yl)amino)-3-methylisoxazol-5-yl)-2-methylpyridin-3-yl)carbamoyl)cyclohexane-1-carboxylic acid], the IC50 was 0.05 to 0.25 µM.

Take `Cc1nc(-c2onc(C)c2Nc2cncc(C(F)(F)F)n2)ccc1NC(=O)[C@H]1CCCC[C@@H]1C(=O)O` [Compound 4, (1S,2S)-2-((2-methyl-6-(3-methyl-4-((6-(trifluoromethyl)pyrazin-2-yl)amino)isoxazol-5-yl)pyridin-3-yl)carbamoyl)cyclohexane-1-carboxylic acid]: the IC50 lay within 0.05 to 0.25 µM.

Take `CCCCNc1cncc(Nc2c(C)noc2-c2ccc(NC(=O)[C@H]3CCCC[C@@H]3C(=O)O)c(C)n2)n1` [Compound 5, (1S,2S)-2-((6-(4-((6-(butylamino)pyrazin-2-yl)amino)-3-methylisoxazol-5-yl)-2-methylpyridin-3-yl)carbamoyl)cyclohexane-1-carboxylic acid]: the IC50 fell in the range of 0.25 to 0.6 µM.

For the compound `Cc1nc(-c2onc(C)c2Nc2cncc(-c3ccccc3)n2)ccc1NC(=O)[C@H]1CCCC[C@@H]1C(=O)O` [Compound 6, (1S,2S)-2-((2-methyl-6-(3-methyl-4-((6-phenylpyrazin-2-yl)amino)isoxazol-5-yl)pyridin-3-yl)carbamoyl)cyclohexane-1-carboxylic acid], the IC50 is under 0.05 µM.

As to `Cc1nc(-c2onc(C)c2Nc2cncc(-c3cccnc3)n2)ccc1NC(=O)[C@H]1CCCC[C@@H]1C(=O)O` [Compound 7, (1S,2S)-2-((2-methyl-6-(3-methyl-4-((6-(pyridin-3-yl)pyrazin-2-yl)amino)isoxazol-5-yl)pyridin-3-yl)carbamoyl)cyclohexane-1-carboxylic acid], the IC50 fell in the range of 0.05 to 0.25 µM.

As to `Cc1nc(-c2onc(C)c2Nc2cncc(-c3ccncc3)n2)ccc1NC(=O)[C@H]1CCCC[C@@H]1C(=O)O` [Compound 8, (1S,2S)-2-((2-methyl-6-(3-methyl-4-((6-(pyridin-4-yl)pyrazin-2-yl)amino)isoxazol-5-yl)pyridin-3-yl)carbamoyl)cyclohexane-1-carboxylic acid], the IC50 is 0.05 to 0.25 µM.

Regarding `Cc1nc(-c2onc(C)c2Nc2cncc(C3=CCCCC3)n2)ccc1NC(=O)[C@H]1CCCC[C@@H]1C(=O)O` [Compound 10, (1S,2S)-2-((6-(4-((6-(cyclohex-1-en-1-yl)pyrazin-2-yl)amino)-3-methylisoxazol-5-yl)-2-methylpyridin-3-yl)carbamoyl)cyclohexane-1-carboxylic acid], the IC50 is under 0.05 µM.

As for `Cc1nc(-c2onc(C)c2Nc2cncc(C3CCCC3)n2)ccc1NC(=O)[C@H]1CCCC[C@@H]1C(=O)O` [Compound 11, (1S,2S)-2-((6-(4-((6-cyclopentylpyrazin-2-yl)amino)-3-methylisoxazol-5-yl)-2-methylpyridin-3-yl)carbamoyl)cyclohexane-1-carboxylic acid], the IC50 is under 0.05 µM.

Regarding `Cc1nc(-c2onc(C)c2Nc2cncc(CC(C)C)n2)ccc1NC(=O)[C@H]1CCCC[C@@H]1C(=O)O` [Compound 12, (1S,2S)-2-((6-(4-((6-isobutylpyrazin-2-yl)amino)-3-methylisoxazol-5-yl)-2-methylpyridin-3-yl)carbamoyl)cyclohexane-1-carboxylic acid], the IC50 fell in the range of 0.05 to 0.25 µM.

Turning to `Cc1nc(-c2onc(C)c2Nc2cncc(C(C)C)n2)ccc1NC(=O)[C@H]1CCCC[C@@H]1C(=O)O` [Compound 13, (1S,2S)-2-((6-(4-((6-isopropylpyrazin-2-yl)amino)-3-methylisoxazol-5-yl)-2-methylpyridin-3-yl)carbamoyl)cyclohexane-1-carboxylic acid], the IC50 is 0.05 to 0.25 µM.

As for `Cc1nc(-c2onc(C)c2Nc2cncc(-c3ccccn3)n2)ccc1NC(=O)[C@H]1CCCC[C@@H]1C(=O)O` [Compound 14, (1S,2S)-2-((2-methyl-6-(3-methyl-4-((6-(pyridin-2-yl)pyrazin-2-yl)amino)isoxazol-5-yl)pyridin-3-yl)carbamoyl)cyclohexane-1-carboxylic acid], the IC50 lay in the range of 0.05 to 0.25 µM.

Take `Cc1nc(-c2onc(C)c2Nc2cncc(NC3CCCC3)n2)ccc1NC(=O)[C@H]1CCCC[C@@H]1C(=O)O` [Compound 15, (1S,2S)-2-((6-(4-((6-(cyclopentylamino)pyrazin-2-yl)amino)-3-methylisoxazol-5-yl)-2-methylpyridin-3-yl)carbamoyl)cyclohexane-1-carboxylic acid]: the IC50 was 0.05 to 0.25 µM.

Consider `Cc1nc(-c2cnn(C)c2CNc2nccc(OC(C)C)n2)ccc1NC(=O)[C@H]1CCCC[C@@H]1C(=O)O` [Compound 17, (1S,2S)-2-((6-(5-(((4-isopropoxypyrimidin-2-yl)amino)methyl)-1-methyl-1H-pyrazol-4-yl)-2-methylpyridin-3-yl)carbamoyl)cyclohexane-1-carboxylic acid], for which the IC50 was in the range of 0.05 to 0.25 µM.

As to `Cc1nc(-c2cnn(C)c2CNc2nccc(C3CCCCC3)n2)ccc1NC(=O)[C@H]1CCCC[C@@H]1C(=O)O` [Compound 18], the IC50 was under 0.05 µM.

For the compound `Cc1nc(-c2cnn(C)c2CNc2nccc(-c3ccccc3)n2)ccc1NC(=O)[C@H]1CCCC[C@@H]1C(=O)O` [Compound 19, (1S,2S)-2-((2-methyl-6-(1-methyl-5-(((4-phenylpyrimidin-2-yl)amino)methyl)-1H-pyrazol-4-yl)pyridin-3-yl)carbamoyl)cyclohexane-1-carboxylic acid], the IC50 was under 0.05 µM.

Take `CC(C)Oc1cncc(Nc2c(-c3ccc(NC(=O)[C@H]4CCCC[C@@H]4C(=O)O)cc3)cnn2C)n1` [Compound 20, (1S,2S)-2-((4-(5-((6-isopropoxypyrazin-2-yl)amino)-1-methyl-1H-pyrazol-4-yl)phenyl)carbamoyl)cyclohexane-1-carboxylic acid]: the IC50 was 0.05 to 0.25 µM.

Consider `Cc1nc(-c2cnn(C)c2COC(=O)N(C)CCC(C)C)ccc1NC(=O)[C@H]1CCCC[C@@H]1C(=O)O` [Compound 21, (1S,2S)-2-((6-(5-(((isopentyl(methyl)carbamoyl)oxy)methyl)-1-methyl-1H-pyrazol-4-yl)-2-methylpyridin-3-yl)carbamoyl)cyclohexane-1-carboxylic acid], for which the IC50 was in the range of 0.25 to 0.6 µM.

In the case of `Cc1nc(-c2onc(C)c2NS(=O)(=O)CCc2ccccc2Cl)ccc1NC(=O)[C@H]1CCCC[C@@H]1C(=O)O` [Compound 22, (1S,2S)-2-((6-(4-((2-(2-chlorophenyl)ethyl)sulfonamido)-3-methylisoxazol-5-yl)-2-methylpyridin-3-yl)carbamoyl)cyclohexane-1-carboxylic acid], the IC50 was under 0.05 µM.

Consider `Cc1nc(-c2onc(C)c2NS(=O)(=O)CCc2ccccc2)ccc1NC(=O)[C@H]1CCCC[C@@H]1C(=O)O` [Compound 23, (1S,2S)-2-((2-methyl-6-(3-methyl-4-((2-phenylethyl)sulfonamido)isoxazol-5-yl)pyridin-3-yl)carbamoyl)cyclohexane-1-carboxylic acid], for which the IC50 was in the range of 0.05 to 0.25 µM.

Turning to `Cc1nc(-c2onc(C)c2NS(=O)(=O)CCc2ccccc2F)ccc1NC(=O)[C@H]1CCCC[C@@H]1C(=O)O` [Compound 24, (1S,2S)-2-((6-(4-((2-(2-fluorophenyl)ethyl)sulfonamido)-3-methylisoxazol-5-yl)-2-methylpyridin-3-yl)carbamoyl)cyclohexane-1-carboxylic acid], the IC50 lay in the range of 0.05 to 0.25 µM.
